In ChEMBL document CHEMBL1139648, “Designing rapid onset selective serotonin re-uptake inhibitors. Part 1: Structure-activity relationships of substituted (1S,4S)-4-(3,4-dichlorophenyl)-N-methyl-1,2,3,4-tetrahydro-1-naphthaleneamine” (Bioorg Med Chem Lett, 2006):

Experiments:
[1] = target: Sodium-dependent noradrenaline transporter (Homo sapiens, UniProt P23975); experiment: Inhibition of noradrenaline re-uptake at human noradrenaline transporter expressed in HEK293 cells; type: cell-based
[2] = Distribution coefficient of the compound, log D; type: physicochemical; conditions: octanol/water
[3] = Dissociation constant, pKa of the compound; type: physicochemical
[4] = Oral bioavailability in rat at 5 mg/kg, po; type: ADME, organism-based; conditions: in vivo
[5] = Volume of distribution in rat at 3 mg/kg, iv or 5 mg/kg, po; type: ADME, organism-based; conditions: in vivo, read-out: Vdss
[6] = Tmax in rat at 3 mg/kg, iv or 5 mg/kg, po; type: ADME, organism-based; conditions: in vivo
[7] = Blood clearance in rat in CNS penetration assay at 3 mg/kg, iv or 5 mg/kg, po; type: ADME, organism-based; conditions: whole blood
Rattus norvegicus [8] = experiment: Unbound volume of distribution in rat at 3 mg/kg, iv or 5 mg/kg, po; type: ADME, organism-based; conditions: in vivo
[9] = Half life in human liver microsome; type: ADME; conditions: liver microsomes
[10] = Half life in rat liver microsome; type: ADME; conditions: liver microsomes
[11] = Half life in rat at 3 mg/kg, iv or 5 mg/kg, po; type: ADME, organism-based; conditions: in vivo
[12] = Half life in rat at 1 mg/kg, iv or 1 mg/kg, po; type: ADME, organism-based; conditions: in vivo
[13] = Tmax in rat at 1 mg/kg, iv or 1 mg/kg, po; type: ADME, organism-based; conditions: in vivo
[14] = Oral bioavailability in rat at 1 mg/kg, po; type: ADME, organism-based; conditions: in vivo
Rattus norvegicus [15] = experiment: Unbound volume of distribution in rat at 1 mg/kg, iv or 1 mg/kg, po; type: ADME, organism-based; conditions: in vivo
[16] = Volume of distribution in rat at 1 mg/kg, iv or 1 mg/kg, po; type: ADME, organism-based; conditions: in vivo, read-out: Vdss

Sodium-dependent noradrenaline transporter, sequence (P23975 whole entry): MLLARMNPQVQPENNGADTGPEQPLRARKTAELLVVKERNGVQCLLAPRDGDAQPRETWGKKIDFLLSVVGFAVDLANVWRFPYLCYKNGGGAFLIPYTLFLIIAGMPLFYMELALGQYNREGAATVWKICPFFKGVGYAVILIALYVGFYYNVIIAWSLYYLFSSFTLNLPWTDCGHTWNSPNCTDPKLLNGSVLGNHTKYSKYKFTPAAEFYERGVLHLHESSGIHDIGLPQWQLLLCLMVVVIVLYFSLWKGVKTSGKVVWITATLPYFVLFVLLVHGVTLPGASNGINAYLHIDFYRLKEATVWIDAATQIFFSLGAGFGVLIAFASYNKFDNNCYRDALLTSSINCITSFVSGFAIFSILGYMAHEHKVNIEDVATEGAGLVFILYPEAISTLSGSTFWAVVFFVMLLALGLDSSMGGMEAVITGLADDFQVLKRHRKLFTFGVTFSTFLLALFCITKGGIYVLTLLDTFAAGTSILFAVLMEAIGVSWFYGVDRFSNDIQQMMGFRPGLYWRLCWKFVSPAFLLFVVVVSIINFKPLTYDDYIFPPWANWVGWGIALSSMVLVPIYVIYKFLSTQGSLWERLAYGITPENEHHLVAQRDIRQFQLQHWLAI

IC50 [1] | SMILES | further results
450 nM | CN[C@H]1CC[C@@H](c2ccc(Cl)c(Cl)c2)c2ccc(C[S+](C)[O-])cc21 (some centres not stated) | –
2100 nM | CN[C@H]1CC[C@@H](c2ccc(Cl)c(Cl)c2)c2cc(C(N)=O)c(NS(C)(=O)=O)cc21 | –
20300 nM | CN[C@H]1CC[C@@H](c2ccc(Cl)c(Cl)c2)c2cc(C(=O)O)ccc21 | –
2700 nM | CN[C@H]1CC[C@@H](c2ccc(Cl)c(Cl)c2)c2ccc(S(=O)(=O)N(C)C)cc21 | –
310 nM | CN[C@@H]1CC[C@H](c2ccc(Cl)c(Cl)c2)c2ccc(S(N)(=O)=O)cc21 | –
4200 nM | CN[C@H]1CC[C@@H](c2ccc(Cl)c(Cl)c2)c2cc(S(C)(=O)=O)ccc21 | –
920 nM | CN[C@H]1CC[C@@H](c2ccc(Cl)c(Cl)c2)c2ccc(CC(N)=O)cc21 | –
3200 nM | CN[C@H]1CC[C@@H](c2ccc(Cl)c(Cl)c2)c2ccc(C#N)cc21 | –
1250 nM | CN[C@H]1CC[C@@H](c2ccc(Cl)c(Cl)c2)c2ccc(S(=O)(=O)NC)cc21 | logD [2]: 2.8
880 nM | CN[C@H]1CC[C@@H](c2ccc(Cl)c(Cl)c2)c2cccc(C(=O)O)c21 | –
2100 nM | CN[C@H]1CC[C@@H](c2ccc(Cl)c(Cl)c2)c2cc(S(N)(=O)=O)ccc21 | –
310 nM | CN[C@@H]1CC[C@@H](c2ccc(Cl)c(Cl)c2)c2ccc(S(N)(=O)=O)cc21 | –
11500 nM | CN[C@H]1CC[C@@H](c2ccc(Cl)c(Cl)c2)c2cc(C(=O)N(C)C)ccc21 | –
1150 nM | CN[C@H]1CC[C@@H](c2ccc(Cl)c(Cl)c2)c2cccc(C(N)=O)c21 | –
2100 nM | CN[C@H]1CC[C@@H](c2ccc(Cl)c(Cl)c2)c2ccc(S(C)(=O)=O)cc21 | –
1500 nM | CNC(=O)c1cccc2c1[C@@H](NC)CC[C@H]2c1ccc(Cl)c(Cl)c1 | –
960 nM | CN[C@H]1CC[C@@H](c2ccc(Cl)c(Cl)c2)c2ccc(CNS(C)(=O)=O)cc21 | –
5000 nM | CNC(=O)c1ccc2c(c1)[C@H](c1ccc(Cl)c(Cl)c1)CC[C@@H]2NC | –

IC50 [1] | SMILES | further results
980 nM | CN[C@H]1CC[C@@H](c2ccc(Cl)c(Cl)c2)c2ccc(CO)cc21 | –
– | CNC(=O)c1ccc2c(c1)[C@@H](NC)CC[C@H]2c1ccc(Cl)c(Cl)c1 | logD [2]: 2.8; pKa [3]: 8.8
9600 nM | CN[C@H]1CC[C@@H](c2ccc(Cl)c(Cl)c2)c2ccc(CC(=O)O)cc21 | –
1250 nM | CN[C@H]1CC[C@@H](c2ccc(Cl)c(Cl)c2)c2ccc(C(=O)OC)cc21 | –
9100 nM | CN[C@H]1CC[C@@H](c2ccc(Cl)c(Cl)c2)c2cc(C(=O)O)c(NS(C)(=O)=O)cc21 | –
540 nM | CN[C@H]1CC[C@@H](c2ccc(Cl)c(Cl)c2)c2ccc(S(=O)(=O)NCCO)cc21 | –
60 nM | CN[C@H]1CC[C@@H](c2ccc(Cl)c(Cl)c2)c2ccc(NS(C)(=O)=O)cc21 | –
1800 nM | CN[C@H]1CC[C@@H](c2ccc(Cl)c(Cl)c2)c2cc([S+](C)[O-])ccc21 (some centres not stated) | –
11 nM | CN[C@H]1CC[C@H](c2ccc(Cl)c(Cl)c2)c2ccc(S(N)(=O)=O)cc21 | –
2000 nM | CN[C@H]1CC[C@@H](c2ccc(Cl)c(Cl)c2)c2ccc([S+](C)[O-])cc21 (some centres not stated) | –
1100 nM | CN[C@H]1CC[C@@H](c2ccc(Cl)c(Cl)c2)c2cc(C(N)=O)ccc21 | –
760 nM | CN[C@H]1CC[C@@H](c2ccc(Cl)c(Cl)c2)c2ccc(-n3cncn3)cc21 | –
770 nM | CN[C@H]1CC[C@@H](c2ccc(Cl)c(Cl)c2)c2ccc(S(N)(=O)=O)cc21 | bioavailability [4]: 44%; Vd [5]: 19 L/kg; Tmax [6]: 1 h; clearance [7]: 60 mL/min/kg; logD [2]: 2.3; Vdss (Rattus norvegicus [8]): 600 L/kg; pKa [3]: 8.4; half-life [9]: > 120 min; half-life [10]: > 120 min; half-life [11]: 240 min
2900 nM | CN[C@H]1CC[C@@H](c2ccc(Cl)c(Cl)c2)c2ccc([N+](=O)[O-])cc21 | –
410 nM | CN[C@H]1CC[C@@H](c2ccc(Cl)c(Cl)c2)c2ccc(C(N)=O)cc21 | logD [2]: 2.3; pKa [3]: 8.5
650 nM | CN[C@H]1CC[C@@H](c2ccc(Cl)c(Cl)c2)c2ccc(-n3ccnn3)cc21 | –
– | CN[C@H]1CC[C@@H](c2ccc(Cl)c(Cl)c2)c2ccccc21 [SERTRALINE] | half-life [12]: 300 min; Tmax [13]: 4 h; bioavailability [14]: 51%; Log D [2]: 3.1; Vdu (Rattus norvegicus [15]): 1900 L/kg; pKa [3]: 9.3; Vd [16]: 52 L/kg; half-life [9]: > 120 min; half-life [10]: 23 min
